Measurements taken from ChEMBL document CHEMBL4507268 (2021).

Tests used:
[1] = target: Tyrosine-protein kinase Fgr (Homo sapiens) (UniProt P09769); settings: Compound concentration 1000.0 nM
[2] = target: D(4) dopamine receptor (Homo sapiens) (UniProt P21917); settings: Compound concentration 10.0 uM
[3] = target: Alpha-2A adrenergic receptor (Homo sapiens) (UniProt P08913); settings: Compound concentration 10.0 uM
[4] = target: Death-associated protein kinase 3 (Homo sapiens) (UniProt O43293); settings: Compound concentration 1000.0 nM
[5] = target: Serine/threonine-protein kinase 38 (Homo sapiens) (UniProt Q15208); settings: Compound concentration 1000.0 nM
Chain of Serine/threonine-protein kinase 38 (Homo sapiens) (Q15208 2-465 limits assumed): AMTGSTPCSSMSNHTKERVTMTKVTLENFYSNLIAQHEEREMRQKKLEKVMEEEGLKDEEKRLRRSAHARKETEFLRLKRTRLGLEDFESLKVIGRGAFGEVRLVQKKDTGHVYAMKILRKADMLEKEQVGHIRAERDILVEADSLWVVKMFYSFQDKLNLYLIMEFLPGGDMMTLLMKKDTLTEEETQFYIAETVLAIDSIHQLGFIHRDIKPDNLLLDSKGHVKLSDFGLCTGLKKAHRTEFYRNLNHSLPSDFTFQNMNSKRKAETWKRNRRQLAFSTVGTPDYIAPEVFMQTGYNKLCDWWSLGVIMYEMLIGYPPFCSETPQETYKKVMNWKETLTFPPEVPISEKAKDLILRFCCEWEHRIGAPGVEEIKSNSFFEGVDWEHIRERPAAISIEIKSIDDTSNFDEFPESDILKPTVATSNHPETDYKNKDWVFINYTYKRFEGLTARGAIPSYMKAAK

[6] = target: T1, Calcium/calmodulin-dependent protein kinase type IV (Homo sapiens) (UniProt Q16566); settings: Compound concentration 1000.0 nM
T1 sequence (whole entry): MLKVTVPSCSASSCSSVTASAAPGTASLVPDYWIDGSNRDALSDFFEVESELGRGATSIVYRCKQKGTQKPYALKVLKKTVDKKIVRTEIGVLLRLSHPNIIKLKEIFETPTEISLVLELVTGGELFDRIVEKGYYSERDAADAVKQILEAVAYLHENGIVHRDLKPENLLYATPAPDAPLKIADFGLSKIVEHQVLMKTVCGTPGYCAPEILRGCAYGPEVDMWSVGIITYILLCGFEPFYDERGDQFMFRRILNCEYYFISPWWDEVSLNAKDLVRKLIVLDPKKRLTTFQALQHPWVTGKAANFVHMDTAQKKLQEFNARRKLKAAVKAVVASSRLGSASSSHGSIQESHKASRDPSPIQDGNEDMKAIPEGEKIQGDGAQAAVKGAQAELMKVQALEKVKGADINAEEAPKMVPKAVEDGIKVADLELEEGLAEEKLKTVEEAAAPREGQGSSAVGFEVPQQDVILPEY

[7] = system: Epidermal growth factor receptor (Homo sapiens), P00533 [UNDEFINED MUTATION]; settings: Compound concentration 1000.0 nM
[8] = system: Epidermal growth factor receptor (Homo sapiens), P00533 [G719C]; settings: Compound concentration 1000.0 nM
[9] = target: Mitogen-activated protein kinase 7 (Homo sapiens) (UniProt Q13164); settings: Compound concentration 1000.0 nM
[10] = system: SNU-449; experiment: Proliferation assay: SNU-449 (hepatocellular carcinoma); format: functional, cell-based; settings: Homo sapiens
[11] = target: Serine/threonine-protein kinase WNK3 (Homo sapiens) (UniProt Q9BYP7); settings: Compound concentration 1000.0 nM
Chain of Serine/threonine-protein kinase WNK3 (Homo sapiens) (Q9BYP7 whole entry): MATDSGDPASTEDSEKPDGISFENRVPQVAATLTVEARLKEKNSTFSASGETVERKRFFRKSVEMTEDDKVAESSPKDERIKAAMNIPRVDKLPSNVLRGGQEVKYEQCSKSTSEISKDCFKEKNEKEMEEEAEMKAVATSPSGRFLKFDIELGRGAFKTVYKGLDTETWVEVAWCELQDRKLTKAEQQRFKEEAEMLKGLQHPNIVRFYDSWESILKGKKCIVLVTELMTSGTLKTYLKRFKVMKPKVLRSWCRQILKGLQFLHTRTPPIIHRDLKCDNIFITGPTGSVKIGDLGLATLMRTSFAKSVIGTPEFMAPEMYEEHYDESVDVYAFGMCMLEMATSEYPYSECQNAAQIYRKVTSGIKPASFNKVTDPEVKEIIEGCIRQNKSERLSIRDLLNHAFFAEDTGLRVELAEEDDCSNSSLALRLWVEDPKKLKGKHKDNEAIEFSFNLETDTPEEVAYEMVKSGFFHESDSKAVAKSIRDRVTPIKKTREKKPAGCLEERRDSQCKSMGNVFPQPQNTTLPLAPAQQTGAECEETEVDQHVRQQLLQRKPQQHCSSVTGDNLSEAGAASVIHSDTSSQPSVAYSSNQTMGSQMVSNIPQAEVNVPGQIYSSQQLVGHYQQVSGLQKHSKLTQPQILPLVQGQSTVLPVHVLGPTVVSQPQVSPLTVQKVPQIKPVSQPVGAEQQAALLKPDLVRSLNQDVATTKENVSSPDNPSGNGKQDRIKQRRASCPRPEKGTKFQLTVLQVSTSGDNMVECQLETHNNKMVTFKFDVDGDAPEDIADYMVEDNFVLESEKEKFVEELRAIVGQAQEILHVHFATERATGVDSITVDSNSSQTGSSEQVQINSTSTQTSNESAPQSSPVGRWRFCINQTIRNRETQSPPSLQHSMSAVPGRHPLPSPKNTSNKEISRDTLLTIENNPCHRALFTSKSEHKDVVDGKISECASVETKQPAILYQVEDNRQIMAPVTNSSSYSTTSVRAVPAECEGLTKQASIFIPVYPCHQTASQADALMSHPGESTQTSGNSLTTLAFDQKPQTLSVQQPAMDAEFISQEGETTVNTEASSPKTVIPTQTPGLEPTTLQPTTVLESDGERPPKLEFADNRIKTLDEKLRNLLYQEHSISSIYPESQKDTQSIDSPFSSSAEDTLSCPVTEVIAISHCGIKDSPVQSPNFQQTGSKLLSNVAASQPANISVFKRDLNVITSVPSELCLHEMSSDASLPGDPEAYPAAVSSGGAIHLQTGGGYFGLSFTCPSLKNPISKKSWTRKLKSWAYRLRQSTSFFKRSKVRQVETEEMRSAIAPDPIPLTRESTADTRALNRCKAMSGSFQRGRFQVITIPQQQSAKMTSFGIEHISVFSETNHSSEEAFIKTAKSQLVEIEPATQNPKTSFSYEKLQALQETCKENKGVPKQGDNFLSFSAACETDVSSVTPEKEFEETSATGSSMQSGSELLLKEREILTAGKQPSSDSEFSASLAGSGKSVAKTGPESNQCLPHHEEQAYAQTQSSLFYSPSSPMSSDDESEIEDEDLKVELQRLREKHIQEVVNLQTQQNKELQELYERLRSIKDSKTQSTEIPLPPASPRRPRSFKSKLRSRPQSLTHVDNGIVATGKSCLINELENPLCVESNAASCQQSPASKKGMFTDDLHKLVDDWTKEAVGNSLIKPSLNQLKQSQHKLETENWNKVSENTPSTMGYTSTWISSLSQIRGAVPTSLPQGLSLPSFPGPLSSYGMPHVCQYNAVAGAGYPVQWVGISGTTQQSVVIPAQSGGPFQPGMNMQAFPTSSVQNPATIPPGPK

[12] = target: T2, Serine/threonine-protein kinase tousled-like 1 (Homo sapiens) (UniProt Q9UKI8); settings: Compound concentration 1000.0 nM
T2 sequence (whole entry): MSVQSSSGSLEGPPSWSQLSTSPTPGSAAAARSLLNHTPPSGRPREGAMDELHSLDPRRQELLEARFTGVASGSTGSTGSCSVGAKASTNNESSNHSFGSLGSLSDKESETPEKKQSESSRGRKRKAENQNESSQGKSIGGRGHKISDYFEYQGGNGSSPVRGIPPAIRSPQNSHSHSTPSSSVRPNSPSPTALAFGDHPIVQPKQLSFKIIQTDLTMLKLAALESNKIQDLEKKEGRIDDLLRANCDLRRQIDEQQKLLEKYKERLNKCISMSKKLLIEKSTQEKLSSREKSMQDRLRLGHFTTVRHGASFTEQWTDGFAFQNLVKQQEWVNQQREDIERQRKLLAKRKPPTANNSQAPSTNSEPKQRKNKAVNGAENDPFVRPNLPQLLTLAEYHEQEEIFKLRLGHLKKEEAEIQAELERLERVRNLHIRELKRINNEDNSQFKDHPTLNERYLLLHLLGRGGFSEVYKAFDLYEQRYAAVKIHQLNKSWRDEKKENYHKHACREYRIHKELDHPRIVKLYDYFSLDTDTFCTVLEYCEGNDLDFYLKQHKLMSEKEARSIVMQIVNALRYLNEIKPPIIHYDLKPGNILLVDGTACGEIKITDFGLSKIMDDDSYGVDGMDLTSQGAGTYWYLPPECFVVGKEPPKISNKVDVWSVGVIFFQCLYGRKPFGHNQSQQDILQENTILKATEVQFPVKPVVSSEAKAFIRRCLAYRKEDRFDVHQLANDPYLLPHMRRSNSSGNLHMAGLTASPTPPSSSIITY

[13] = target: T3, Serine/threonine-protein kinase DCLK3 (Homo sapiens) (UniProt Q9C098); settings: Compound concentration 1000.0 nM
T3 sequence (whole entry): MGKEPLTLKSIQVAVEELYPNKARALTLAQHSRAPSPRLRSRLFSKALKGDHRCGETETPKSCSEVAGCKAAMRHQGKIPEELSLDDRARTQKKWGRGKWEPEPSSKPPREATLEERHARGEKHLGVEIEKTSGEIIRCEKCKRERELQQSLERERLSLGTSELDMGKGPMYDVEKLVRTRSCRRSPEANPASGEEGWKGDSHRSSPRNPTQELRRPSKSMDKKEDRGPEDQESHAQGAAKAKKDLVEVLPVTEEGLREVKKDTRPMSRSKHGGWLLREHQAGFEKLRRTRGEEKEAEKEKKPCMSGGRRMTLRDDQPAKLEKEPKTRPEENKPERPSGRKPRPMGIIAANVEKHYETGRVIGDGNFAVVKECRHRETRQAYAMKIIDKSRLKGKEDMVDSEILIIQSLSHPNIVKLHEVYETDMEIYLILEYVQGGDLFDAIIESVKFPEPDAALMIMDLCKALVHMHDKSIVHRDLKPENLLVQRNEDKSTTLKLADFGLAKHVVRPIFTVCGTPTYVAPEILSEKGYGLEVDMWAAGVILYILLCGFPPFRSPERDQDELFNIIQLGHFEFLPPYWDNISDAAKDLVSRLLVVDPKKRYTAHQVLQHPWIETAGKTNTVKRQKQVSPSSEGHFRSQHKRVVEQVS

[14] = system: Phosphatidylinositol 4,5-bisphosphate 3-kinase catalytic subunit alpha isoform (Homo sapiens), P42336 [E542K]; settings: Compound concentration 1000.0 nM
Chain of Phosphatidylinositol 4,5-bisphosphate 3-kinase catalytic subunit alpha isoform (Homo sapiens), P42336 [E542K] (P42336 whole entry E542K, canonical isoform): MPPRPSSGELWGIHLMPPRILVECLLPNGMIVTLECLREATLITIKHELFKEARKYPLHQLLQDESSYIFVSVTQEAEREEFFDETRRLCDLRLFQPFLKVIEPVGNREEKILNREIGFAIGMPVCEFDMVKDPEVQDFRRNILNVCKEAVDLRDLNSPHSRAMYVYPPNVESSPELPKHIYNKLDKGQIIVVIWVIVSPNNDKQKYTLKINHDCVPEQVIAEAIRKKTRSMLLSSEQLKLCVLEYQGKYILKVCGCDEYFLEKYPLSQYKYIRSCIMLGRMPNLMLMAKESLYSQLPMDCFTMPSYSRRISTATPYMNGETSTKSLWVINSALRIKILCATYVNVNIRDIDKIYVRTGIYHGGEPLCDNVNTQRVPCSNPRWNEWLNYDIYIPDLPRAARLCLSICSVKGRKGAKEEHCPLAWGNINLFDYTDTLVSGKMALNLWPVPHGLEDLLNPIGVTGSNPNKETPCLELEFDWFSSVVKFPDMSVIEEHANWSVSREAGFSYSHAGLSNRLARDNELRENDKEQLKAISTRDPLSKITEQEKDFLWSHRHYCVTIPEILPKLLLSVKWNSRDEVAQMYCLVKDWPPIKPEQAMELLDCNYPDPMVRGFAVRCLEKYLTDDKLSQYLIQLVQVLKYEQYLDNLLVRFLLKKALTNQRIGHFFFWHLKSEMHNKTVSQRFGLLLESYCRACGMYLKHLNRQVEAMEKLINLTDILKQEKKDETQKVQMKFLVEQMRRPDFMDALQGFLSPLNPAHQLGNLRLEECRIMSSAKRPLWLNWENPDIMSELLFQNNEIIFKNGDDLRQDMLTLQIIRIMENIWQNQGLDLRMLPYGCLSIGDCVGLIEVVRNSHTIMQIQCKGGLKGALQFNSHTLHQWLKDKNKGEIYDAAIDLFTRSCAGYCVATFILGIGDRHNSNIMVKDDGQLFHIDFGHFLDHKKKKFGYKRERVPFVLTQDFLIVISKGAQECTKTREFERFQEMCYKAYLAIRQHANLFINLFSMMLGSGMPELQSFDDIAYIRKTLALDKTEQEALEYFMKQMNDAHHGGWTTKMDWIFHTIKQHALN

[15] = target: Atypical kinase COQ8B, mitochondrial (Homo sapiens) (UniProt Q96D53); settings: Compound concentration 1000.0 nM
Chain of Atypical kinase COQ8B, mitochondrial (Homo sapiens) (Q96D53 whole entry): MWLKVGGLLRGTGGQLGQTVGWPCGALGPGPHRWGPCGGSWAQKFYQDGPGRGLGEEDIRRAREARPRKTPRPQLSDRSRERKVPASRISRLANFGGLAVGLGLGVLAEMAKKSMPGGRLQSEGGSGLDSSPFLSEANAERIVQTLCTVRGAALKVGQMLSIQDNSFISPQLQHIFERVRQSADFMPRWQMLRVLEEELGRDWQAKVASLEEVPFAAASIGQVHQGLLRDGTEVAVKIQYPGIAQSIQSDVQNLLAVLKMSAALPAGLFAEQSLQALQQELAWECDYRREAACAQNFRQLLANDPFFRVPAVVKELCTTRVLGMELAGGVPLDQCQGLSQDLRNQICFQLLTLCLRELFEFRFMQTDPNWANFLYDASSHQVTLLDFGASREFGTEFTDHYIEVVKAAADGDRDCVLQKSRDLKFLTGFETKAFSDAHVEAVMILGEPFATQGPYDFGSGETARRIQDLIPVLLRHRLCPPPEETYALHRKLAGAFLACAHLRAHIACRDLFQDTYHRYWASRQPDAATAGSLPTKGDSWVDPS

[16] = target: Dual specificity mitogen-activated protein kinase kinase 5 (Homo sapiens) (UniProt Q13163); settings: Compound concentration 1000.0 nM
Chain of Dual specificity mitogen-activated protein kinase kinase 5 (Homo sapiens) (Q13163 whole entry): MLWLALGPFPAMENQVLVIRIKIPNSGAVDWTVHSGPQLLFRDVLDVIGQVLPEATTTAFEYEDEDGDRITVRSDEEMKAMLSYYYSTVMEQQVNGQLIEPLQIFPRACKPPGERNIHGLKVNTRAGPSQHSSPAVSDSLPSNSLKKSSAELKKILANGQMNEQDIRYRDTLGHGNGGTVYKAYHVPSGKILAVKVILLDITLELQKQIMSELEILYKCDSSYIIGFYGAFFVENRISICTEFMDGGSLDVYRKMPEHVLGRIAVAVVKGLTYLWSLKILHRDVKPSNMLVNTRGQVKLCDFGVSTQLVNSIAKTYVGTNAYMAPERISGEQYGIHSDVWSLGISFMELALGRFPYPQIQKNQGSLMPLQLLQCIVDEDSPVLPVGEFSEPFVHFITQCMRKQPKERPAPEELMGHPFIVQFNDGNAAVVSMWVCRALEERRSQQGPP

Chain of D(4) dopamine receptor (Homo sapiens) (P21917 whole entry): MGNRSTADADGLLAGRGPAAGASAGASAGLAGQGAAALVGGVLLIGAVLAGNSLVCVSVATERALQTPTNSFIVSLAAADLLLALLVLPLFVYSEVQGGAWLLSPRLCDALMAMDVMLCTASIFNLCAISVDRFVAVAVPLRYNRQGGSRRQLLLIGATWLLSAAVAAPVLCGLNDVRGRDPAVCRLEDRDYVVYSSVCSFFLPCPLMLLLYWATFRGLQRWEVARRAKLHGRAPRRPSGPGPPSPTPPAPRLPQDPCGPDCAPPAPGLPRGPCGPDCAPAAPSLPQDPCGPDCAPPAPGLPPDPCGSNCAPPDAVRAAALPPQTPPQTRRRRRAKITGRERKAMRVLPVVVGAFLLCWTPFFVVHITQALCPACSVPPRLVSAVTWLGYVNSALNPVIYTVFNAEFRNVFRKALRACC

`Cc1nc(C2CCN(C(=O)c3ccc(OC(F)(F)F)cc3N)CC2)c2ncc(N3CCN(C)CC3)cc2n1` [BAY-693] showed a residual activity [1] of 100%, an inhibition [2] of 1.98% and an inhibition [3] of -6.02%. The residual activity [4] was 100%, the residual activity [5] was 94% and the residual activity [6] was 95%. It also gave a residual activity [7] of 49%, a residual activity [8] of 100% and a residual activity [9] of 22%. The IC50 [10] was 19.5 µM (not active), the residual activity [11] was 94% and the residual activity [12] was 100%. It also gave a residual activity [13] of 98%, a residual activity [14] of 92% and a residual activity [15] of 93%. The residual activity [16] was 83%.
`CN1CCN(c2cnc3c(C4CCN(C(=O)c5ccc(OC(F)(F)F)cc5N)CC4)ncnc3c2)CC1` [BAY-885] was tested, and the residual activity [1] was 100%, the inhibition [2] was 12.7% and the inhibition [3] was -3.41%. The residual activity [4] was 91%, the residual activity [5] was 80% and the residual activity [6] was 94%. The residual activity [7] was 38%, the residual activity [8] was 94% and the residual activity [9] was 0.1%. For the same compound, the IC50 [10] was > 30 µM (not active), the residual activity [11] was 100% and the residual activity [12] was 100%. It also gave a residual activity [13] of 91%, a residual activity [14] of 100% and a residual activity [15] of 100%. For the same compound, the residual activity [16] was 86%.
